US20220031625A1, “OPHTHALMIC COMPOSITIONS FOR DELIVERING MEIBUM-LIKE MATERIALS” (Altaire Pharmaceuticals, Inc., priority 2020, published 2022)

Tested on: normal human keratinocytes/stratified squamous epithelium (EPIOCULAR model)
Test: Ocular irritation test - MTT assay on EPIOCULAR model
Assay type: cell-based
Method: Another Ocular Irritation Study was done by exposing a microemulsion containing polyoxyl 35 castor oil in accordance with an embodiment of the present disclosure onto normal human keratinocytes/stratified squamous epithelium which is similar to that found in the cornea epithelium of the human eye (EPIOCULAR model), and then checking tissue viability with MTT assay for cytoxicity after incubation in comparison with a water control (Cyprotex). The study design and results are summarized below in Table 7.

SMILES: COC(C)=O [Methyl Acetate]
- Irritation Response (Irritant if ≤60%) (EPIOCULAR model): Positive
- Mean Tissue Viability (in comparison with a water control): 31.1%
